# Laboratory results from patent US7951950B2, “PGD2 receptor antagonists for the treatment of inflammatory diseases” (Millennium Pharmaceuticals, Inc., priority 2005, dated 2011).
# Target: T1, cloned human CRTH2 receptor (Homo sapiens, UniProt Q9Y5Y4)
# T1 construct: purchased Biosignal; host or cells: HEK-293 cells stably expressing human CRTH2 and G alpha 16
# T1 sequence (Q9Y5Y4 1-395): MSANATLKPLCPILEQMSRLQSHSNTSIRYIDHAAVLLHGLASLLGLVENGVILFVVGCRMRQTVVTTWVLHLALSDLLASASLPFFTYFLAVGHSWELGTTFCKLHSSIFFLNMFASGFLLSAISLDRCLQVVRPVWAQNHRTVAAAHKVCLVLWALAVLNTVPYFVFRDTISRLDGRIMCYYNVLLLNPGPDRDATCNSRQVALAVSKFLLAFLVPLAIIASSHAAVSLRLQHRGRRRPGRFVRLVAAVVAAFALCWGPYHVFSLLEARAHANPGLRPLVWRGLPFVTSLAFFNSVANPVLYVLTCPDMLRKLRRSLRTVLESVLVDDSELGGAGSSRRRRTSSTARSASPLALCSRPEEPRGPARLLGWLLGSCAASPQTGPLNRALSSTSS
# Experiment: radioligand membrane binding assay: inhibition of [3H] PGD2 binding, Scintillation Proximity Assay
# Conditions: [3H] PGD2 binding to membranes of HEK-293 cells expressing human CRTH2; SPA
# Experimental: This radioligand membrane binding assay evaluates the ability of compounds to inhibit [^3H] Prostaglandin D2 (PGD2) binding to the cloned human CRTH2 receptor stably expressed in HEK-293 cells (expressing human CRTh2 receptor and α subunit or the heterotrimeric G protein 16 were prepared by Biosignal Company) using Scintillation Proximity Assay.
# A binding buffer containing 50 mM Tris-HCl (pH 7.5), 5 mM MgCl2 and 1 mM EDTA is prepared immediately prior to performing the assay. A bead/membrane solution at twice the final assay concentration comprising membranes (membranes bought from Biosignal) from the HEK-293 cells cloned to express CRTH2 receptor bound to and [^3H] PGD2 at two times the final assay concentration are prepared and stored on ice before adding to wells. Cold PGD2 at twenty times the final assay concentration is prepared and stored on ice before adding to wells defining non-specific binding (NSB) coming plates #3653 are used for this assay.
# 10 mM stock concentrations of compounds in 100% DMSO are prepared and stored at room temperature. A 10 point concentration response curve is then constructed for each compound, starting at 10 μM (final assay concentration). The compounds are prepared at 40 times final assay concentrations with nine consequent-3-fold dilutions.
# 0.1 μl of each concentration of compound are added to the appropriate well of the 384 plate and 2 μl of cold PGD2 is added into the wells defining NSB. 20 μl of [3H] PGD2 and then 20 μl of 2× of bead/membrane solution are then added to each well.
# The plates are allowed to incubate at room temperature for approximately 2 hours and then counted on Packard Topcount using SPA tritium protocol for 1 minute/well.
# The percent inhibition of PGD2 binding (PGD2 used at the KD value or lower) to the HEK-293 cell membranes is determined, the assay is always run as duplicate for n=1 for a total of n=2 and shown below.
row,Structure (SMILES),Ki [µM]
1,"CCN(C(=O)[C@H]1C[C@H](C)N(C(=O)c2ccc(OC)cc2)c2ccccc21)c1ccc(C)c(F)c1 (racemic) [Compound 57, (±)-trans-1-(4-Methoxy-benzoyl)-2-methyl-1,2,3,4-tetrahydro-quinoline-4-carboxylic acid ethyl-(3-fluoro-4-methyl-phenyl)-amide]",< 10
2,"CCN(C(=O)[C@H]1C[C@H](C)N(C(=O)c2ccc(OC)cc2)c2ccccc21)c1ccc(C(C)C)cc1 (racemic) [Compound 15, (±)-trans-1-(4-Methoxy-benzoyl)-2-methyl-1,2,3,4-tetrahydro-quinoline-4-carboxylic acid ethyl-(4-isopropyl-phenyl)-amide]",< 10
3,"CCN(C(=O)[C@H]1C[C@H](C)N(C(=O)c2ccc(OC)cc2)c2ccccc21)c1ccc(C)c(C(F)(F)F)c1 (racemic) [Compound 50, (±)-trans-1-(4-Methoxy-benzoyl)-2-methyl-1,2,3,4-tetrahydro-quinoline-4-carboxylic acid ethyl-(4-methyl-3-trifluoromethyl-phenyl)-amide]",< 10
4,"CCN(C(=O)[C@H]1C[C@@H](C)N(C(=O)c2ccc(OCCC(C)(C)C(=O)O)cc2)c2ccccc21)c1ccc(Cl)cc1 (racemic) [Compound 76, (±)-cis-4-(4-{4-[(4-Chloro-phenyl)-ethyl-carbamoyl]-2-methyl-3,4-dihydro-2H-quinoline-1-carbonyl}-phenoxy)-2,2-dimethyl-butyric acid]",< 10
5,"CCN(C(=O)[C@H]1C[C@H](C)N(C(=O)Cc2ccc(OC)cc2)c2ccccc21)c1ccc(Cl)cc1 (racemic) [Compound 2, (±)-trans-1-[2-(4-Methoxy-phenyl)-acetyl]-2-methyl-1,2,3,4-tetrahydro-quinoline-4-carboxylic acid (4-chloro-phenyl)-ethyl-amide]",< 10
6,"CCN(C(=O)[C@H]1C[C@H](C)N(C(=O)c2ccc(OC)cc2)c2ccccc21)c1ccc(Cl)c(C(F)(F)F)c1 (racemic) [Compound 11, (±)-trans-1-(4-Methoxy-benzoyl)-2-methyl-1,2,3,4-tetrahydro-quinoline-4-carboxylic acid (4-chloro-3-trifluoromethyl-phenyl)-ethyl-amide]",< 10
7,"CCN(Cc1ccc(Cl)cc1)C(=O)[C@H]1C[C@H](C)N(C(=O)c2ccc(OC)cc2)c2ccccc21 (racemic) [Compound 5, (±)-trans-1-(4-Methoxy-benzoyl)-2-methyl-1,2,3,4-tetrahydro-quinoline-4-carboxylic acid (4-chloro-benzyl)-ethyl-amide]",< 10
8,"CCN(C(=O)C1CCN(C(=O)c2ccc(OC)cc2)c2ccccc21)c1ccc(Cl)cc1 (racemic) [Compound 33, (±)-1-(4-Methoxy-benzoyl)-1,2,3,4-tetrahydro-quinoline-4-carboxylic acid (4-chloro-phenyl)-ethyl-amide]",< 10
9,"CCN(C(=O)[C@H]1C[C@H](C)N(C(=O)c2ccc(OC)cc2)c2ccccc21)c1cc(C)on1 (racemic) [Compound 35, (±)-trans-1-(4-Methoxy-benzoyl)-2-methyl-1,2,3,4-tetrahydro-quinoline-4-carboxylic acid ethyl-(5-methyl-isoxazol-3-yl)-amide]",< 10
10,"CCN(C(=O)[C@H]1C[C@H](C)N(C(=O)c2ccc(OC)cc2)c2ccccc21)c1ccccc1C (racemic) [Compound 61, (±)-trans-1-(4-Methoxy-benzoyl)-2-methyl-1,2,3,4-tetrahydro-quinoline-4-carboxylic acid ethyl-o-tolyl-amide]",< 10
